Series [1] can be described thus: Metabolic stability in liver microsomes. Type of series: in vitro ADME, human. Conditions: 1 μM test compound; for half-life at 1 μM: human, liver microsomes, 37° C. The method, then:
(§1) Metabolic stability of the compounds of Formula (I) was determined by standard liver microsome assays. Briefly, metabolic stability was tested by adding the compound to be tested dissolved in DMSO to human, dog, or rat liver microsomes. Assays were run with a starting concentration of 1 μM test compound. The reaction was initiated by addition of nicotinamide adenine dinucleotide phosphate[…] (NADPH) regeneration components at 37° C., at which time an aliquot was immediately quenched in an ice-cold acetonitrile/methanol/water solution. Reaction mixture was incubated at 37° C. on a shaker, and additional aliquots were taken at 7, 15, 30 and 60 minutes. Following quench and centrifugation, samples were analyzed on HPLC/MS/MS.
In general terms: Liver microsomes are vesicles of endoplasmic reticulum, rich in cytochrome P450 enzymes.

Series [2] in a line: Metabolic stability in liver microsomes. Type of series: in vitro ADME. The method, then: as §1
Series [3] concerns the target T1, human TRPA1 (hTRPA1) (Homo sapiens, UniProt O75762).
T1 construct: expressed in transfected cells
The series can be described thus: Inhibition of human TRPA1, whole-cell patch clamp. Format: cell-based. Conditions: antagonist effect, whole cell patch configuration; read-out: hTRPA1. The method, then: Data for TRPA1 inhibition was obtained by this method for the indicated compounds of Formula (I), with the relevant data included in Table 14 below. All currents were recorded in whole-cell configuration using EPC-9 and EPC-10 amplifiers and Patchmaster software (HEKA). […] The standard pipette solution consisted of 140 mM CsAsp, 10 mM EGTA, 10 mM HEPES, […], 1.91 mM CaCl2, and up to 0.3 mM Na2GTP, with pH adjusted to 7.2 with CsOH. In addition, a solution containing 145 mM CsCl, 10 mM HEPES, 10 mM EGTA, and up to 0.3 mM Na2GTP and 1 mM MgCl2 (pH 7.2 adjusted with CsOH) can be used. The standard bath solution contained 150 mM NaCl, 10 mM HEPES, 10 mM glucose, 4.5 mM KCl, 1 mM EGTA, 3 mM MgCl2, with pH adjusted to 7.4 with NaOH. In some instances, 2 mM CaCl2 was added in place of EGTA and the concentration of MgCl2 was reduced to 1 mM.
Data were collected either by continuous recordings at −60 mV or by applying voltage ramps from a holding potential of 0 mV every 4 s. Continuous recordings were collected at 400 Hz and digitally filtered off-line at 10 Hz for presentation. Voltage ramps were applied from −100 mV to 100 mV over the course of 400 ms, and data were collected at 10 kHz and filtered at […]. Inward and outward currents were analyzed from the ramps at −80 and 80 mV, respectively. Liquid junction potential correction was not used.
Solutions were switched using a gravity-fed continuous focal perfusion system. To achieve rapid temperature changes, two temperature control, and perfusion systems were employed simultaneously. For temperatures greater than or equal to 22° C., a Warner Instruments bipolar temperature controller (TC-344B) and inline heater (SHM-8) were used. […] Temperatures were confirmed using a thermistor (Warner Instruments, TA-29), with temperatures at the recorded cell estimated to be within +/−2° C. of those reported.
The antagonist effects of compounds of Formula (I) against human TRPA1 (“hTRPA1”) in a whole cell patch configuration were evaluated using the in vitro assay protocol described above.
(In general: In patch-clamp work, channel activity is measured electrically.)

Series [4] in a line: Kinetic solubility in buffered solutions. Conditions: aqueous buffer, kinetic from dmso stock, 24 hours ambient. Format: physicochemical. The method, then: The solubilities of the compounds of Formula (I) were tested using the procedure outlined in Kerns, E. H., J Pharm Sci (2001) 90:1838-1858, incorporated herein by reference and described below. Data for solubility was obtained by this method for compounds of Formula (I) and included in Table 3. The chromatographic data was performed by HPLC using an Xbridge Shield RP18 column with the following column dimensions: 4.6×30 mm, 3.5 μm. The mobile phase consisted of deionized water (MPA) with trifluoroacetic acid added in at 0.1% (v/v) (MPC) and HPLC-grade acetonitrile (MPB). The mobile phase flow rate was 2.5 mL/min with the column and sampling operating at ambient temperature. UV detection was set to 280 nm.
Samples for analysis of the compounds of Formula (I) were prepared at a % v/v=1/19 (i.e., 10 μL of the stock solution into 190 μL of buffer) by spiking stock solutions of the compounds of Formula (I) into buffered solutions. Three buffered solution systems were prepared: pH 4.0 prepared from 50 mM sodium acetate in a 5% dextrose in water solution, pH 7.4 prepared from 75 mM sodium phosphate in a 1:1 ratio of sterilized water for injection to a 5% dextrose in water solution, and pH 9.0 prepared from 50 mM sodium bicarbonate in a 1:2 ratio of sterilized water for injection to a 5% dextrose in water solution. The samples were incubated on a microplate shaker at 300 rpm for 24 hours at ambient temperature. Following incubation, the samples were centrifuged for five minutes at 13 k rpm at ambient temperature. The resulting supernantant was extracted for HPLC analysis.

Series [5] can be described thus: Solubility in Normal Ringer Solution. Format: physicochemical. Conditions: aqueous buffer, kinetic from dmso stock, pH 7.4, room temperature. The method, then: Compounds of the invention were also tested for solubility in Normal Ringer Solution. […] Following vortex and incubation for 40 minutes at room temperature, solutions were filtered, quenched with acetonitrile, and analyzed by liquid chromatography. Solubility limits were determined by comparison to a standard curve. […] Solubility is reported as “greater than” if the observed increase between the last 2 dilutions tested is greater than 2-fold.

Series [6] can be described thus: Oral bioavailability of solutions in non-fasted rats. Conditions: rat, in vivo, oral solution, read-out: Rat % F. Here is the method: Early bioavailability studies in rat were conducted with solutions of the compounds of the invention. Compounds were delivered via oral administration as a solution in an appropriate excipient. Example formulations include, but are not limited to: 4% DMSO, 10% Solutol HS-15, and 86% water or 4% DMSO, 5% Tween, 25% Cremophor EL. Target concentrations were typically 1 mg/mL, and administered via oral gavage to non-fasted rats. The absolute bioavailability is the dose-corrected area under the curve (AUC) non-intravenous divided by the dose corrected AUC intravenous. The formula for calculating F for a drug administered by the oral route (PO) is given below:
% F=AUC PO×Dose IV/AUC IV×Dose PO

Where [7] appears, read: sodium acetate buffer, pH 4.0, 50 mM sodium acetate, read-out: pH 4.0 solubility.
The mark [8] stands for this setting: sodium bicarbonate buffer, pH 9.0, 50 mM sodium bicarbonate, read-out: pH 9.0 solubility.
[9] abbreviates: sodium phosphate buffer, pH 7.4, 75 mM sodium phosphate, read-out: pH 7.4 solubility.
The mark [10] stands for this setting: rat liver microsomes, both sexes, read-out: Half-Life Both sexes.

In brackets after ≈: the same amount, converted by molar mass. Where two headings read alike, the source gives them in different places. Some results are limits rather than exact numbers.

T1 sequence (O75762 whole entry): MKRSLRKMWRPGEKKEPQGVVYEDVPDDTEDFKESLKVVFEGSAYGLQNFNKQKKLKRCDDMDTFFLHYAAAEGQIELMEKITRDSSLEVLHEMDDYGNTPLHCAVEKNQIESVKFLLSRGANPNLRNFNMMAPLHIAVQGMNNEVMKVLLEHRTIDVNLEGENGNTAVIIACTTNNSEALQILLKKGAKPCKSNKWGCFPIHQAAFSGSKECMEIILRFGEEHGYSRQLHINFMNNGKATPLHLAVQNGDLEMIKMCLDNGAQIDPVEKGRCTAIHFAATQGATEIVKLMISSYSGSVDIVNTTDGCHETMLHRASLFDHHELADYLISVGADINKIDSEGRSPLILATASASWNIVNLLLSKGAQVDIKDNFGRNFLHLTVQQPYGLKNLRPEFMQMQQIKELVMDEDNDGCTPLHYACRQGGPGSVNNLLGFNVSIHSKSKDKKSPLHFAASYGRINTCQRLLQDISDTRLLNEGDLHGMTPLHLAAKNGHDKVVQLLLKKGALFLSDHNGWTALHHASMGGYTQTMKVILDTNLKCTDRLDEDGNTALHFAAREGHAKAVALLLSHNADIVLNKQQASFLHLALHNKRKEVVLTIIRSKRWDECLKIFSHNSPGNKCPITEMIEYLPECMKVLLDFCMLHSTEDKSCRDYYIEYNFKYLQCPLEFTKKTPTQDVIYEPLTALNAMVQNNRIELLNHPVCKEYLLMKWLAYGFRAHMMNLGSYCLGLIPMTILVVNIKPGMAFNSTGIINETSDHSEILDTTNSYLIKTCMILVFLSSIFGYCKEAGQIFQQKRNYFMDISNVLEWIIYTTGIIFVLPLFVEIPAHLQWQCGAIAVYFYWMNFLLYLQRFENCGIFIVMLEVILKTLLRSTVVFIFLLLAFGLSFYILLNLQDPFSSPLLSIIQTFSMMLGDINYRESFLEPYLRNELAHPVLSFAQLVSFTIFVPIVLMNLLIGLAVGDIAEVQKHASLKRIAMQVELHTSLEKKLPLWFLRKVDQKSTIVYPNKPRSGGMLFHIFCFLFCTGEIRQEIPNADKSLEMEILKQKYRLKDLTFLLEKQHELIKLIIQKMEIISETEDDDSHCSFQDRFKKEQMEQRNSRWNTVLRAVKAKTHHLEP

As usually defined, the half-life is how long it takes for the measured level to halve. On to `C[C@H]1CCCN1c1ncc(-c2nccc(NC(=O)[C@H](C)n3cnc4c3c(=O)n(C)c(=O)n4C)n2)cn1` [Compound 21, (S)-2-(1,3-dimethyl-2,6-dioxo-2,3-dihydro-1H-purin-7(6H)-yl)-N-(2′-((S)-2-methylpyrrolidin-1-yl)-[2,5′-bipyrimidin]-4-yl)propanamide], for which the “Human Liver Microsomes Hepatic Clearance” value in series [1] worked out at 10.5 mL/min/kg. The half-life at 1 μM in series [1] worked out at 30 min; in series [2] (dog liver microsomes, female, read-out: Female Half-Life) it was 66 min; in series [2] (rat liver microsomes, male, read-out: Male Half-Life), 16 min. Moreover, in series [2] (dog liver microsomes, female), the “Female Hepatic Clearance” value came to 8 mL/min/kg. Also, in series [2] (rat liver microsomes), the “Hepatic Clearance” value is given as 11 mL/min/kg. Also, the “Male Hepatic Clearance” value in series [2] (rat liver microsomes, male) is 34 mL/min/kg. Besides, the IC50 in series [3] came out at 51 nM. Further, the solubility kinetic at 24 h in series [4] (setting [7]) worked out at 34 µg/mL (≈ 69.3 µM); in series [4] (setting [8]) it was 10.5 µg/mL (≈ 21.4 µM); in series [4] (setting [9]), 20 µg/mL (≈ 40.8 µM).

As usually defined, the solubility is the dissolved amount per volume that the medium holds. Higher therefore signals much dissolved substance. For the compound `C[C@@H](C(=O)Nc1ccnc(-c2cnc(N3CC(C(F)(F)F)C3)nc2)n1)n1cnc2c1c(=O)n(C)c(=O)n2C` [Compound 13, (S)-2-(1,3-dimethyl-2,6-dioxo-2,3-dihydro-1H-purin-7(6H)-yl)-N-(2′-(3-(trifluoromethyl)azetidin-1-yl)-2,5′-bipyrimidin-4-yl)propanamide], the half-life at 1 μM in series [1] is greater than 60 min; in series [2] (setting [10]) it was 60 min. The IC50 in series [3] came out at 62.9 nM. In series [5], this compound came in with a solubility at 40 min greater than 77.6 µM.

Regarding `C[C@@H](C(=O)Nc1ccnc(-c2cnc(N3CC4CC4C3)nc2)n1)n1cnc2c1c(=O)n(C)c(=O)n2C` (stereo partly drawn) [Compound 15, (2S)—N-(2′-(3-azabicyclo[3.1.0]hexan-3-yl)-2,5′-bipyrimidin-4-yl)-2-(1,3-dimethyl-2,6-dioxo-2,3-dihydro-1H-purin-7(6H)-yl)propanamide], the half-life at 1 μM was found to be 88.8 min in series [1] and 72.7 min in series [2] (setting [10]). Further, the bioavailability in series [6] was found to be 35%. Besides, in series [3], the IC50 was 26.7 nM. Further, in series [5], the solubility at 40 min is 16.3 µM (≈ 7.96 µg/mL).

`C[C@@H](C(=O)Nc1ccnc(-c2cnc(N3CC4C(C3)C4(F)F)nc2)n1)n1cnc2c1c(=O)n(C)c(=O)n2C` (stereo partly drawn) [Compound 26] showed a solubility at 40 min in series [5] greater than 15.1 µM.

Take `C[C@@H](C(=O)Nc1ccnc(-c2cnc(N3CCC[C@H]3C(F)(F)F)nc2)n1)n1cnc2c1c(=O)n(C)c(=O)n2C(F)F` [Compound 6, (S)-2-(3-(difluoromethyl)-1-methyl-2,6-dioxo-2,3-dihydro-1H-purin-7(6H)-yl)-N-(2′-((S)-2-(trifluoromethyl)pyrrolidin-1-yl)-[2,5′-bipyrimidin]-4-yl)propanamide]: the half-life at 1 μM amounted to 27.4 min in series [1] and 118 min in series [2] (setting [10]). Further, the IC50 in series [3] amounted to 29.7 nM. Further, in series [5], the solubility at 40 min is roughly 23 µM (≈ 13.4 µg/mL).

`C[C@H]1CCCCN1c1ncc(-c2nccc(NC(=O)Cn3cnc4c3c(=O)n(C)c(=O)n4C)n2)cn1` [Compound 17, (S)-2-(1,3-dimethyl-2,6-dioxo-2,3-dihydro-1H-purin-7(6H)-yl)-N-(2′-(2-methylpiperidin-1-yl)-2,5′-bipyrimidin-4-yl)acetamide]: in series [1], the “Human Liver Microsomes Hepatic Clearance” value is given as 16 mL/min/kg. The compound also had a half-life at 1 μM in series [1] of 8 min. In addition, the “Hepatic Clearance” value in series [2] (rat liver microsomes) is reported as 22 mL/min/kg. The IC50 in series [3] was 41.2 nM. Besides, the solubility kinetic at 24 h in series [4] (setting [7]) was found to be 11 µg/mL (≈ 22.4 µM); in series [4] (setting [8]) it was 9 µg/mL (≈ 18.3 µM); in series [4] (setting [9]), 12 µg/mL (≈ 24.5 µM).

In series [1], `C[C@@H](C(=O)Nc1ccnc(-c2cnc(N3CCC(C(F)(F)F)C3)nc2)n1)n1cnc2c1c(=O)n(C)c(=O)n2C` (stereo partly drawn) [Compound 16, (2S)-2-(1,3-dimethyl-2,6-dioxo-2,3-dihydro-1H-purin-7(6H)-yl)-N-(2′-(3-(trifluoromethyl)pyrrolidin-1-yl)-2,5′-bipyrimidin-4-yl)propanamide] had a half-life at 1 μM of 52.4 min. The IC50 in series [3] is 24.9 nM. In series [5], the solubility at 40 min is greater than 47 µM.

In the case of `C[C@@H](C(=O)Nc1ccnc(-c2cnc(N3CCC[C@H]3C(F)(F)F)nc2)n1)n1cnc2[nH]c(=O)n(C)c(=O)c21` [Compound 5, (S)-2-(1-methyl-2,6-dioxo-2,3-dihydro-1H-purin-7(6H)-yl)-N-(2′-((S)-2-(trifluoromethyl)pyrrolidin-1-yl)-[2,5′-bipyrimidin]-4-yl)propanamide], the half-life at 1 μM in series [1] is 37.8 min; in series [2] (dog liver microsomes, both sexes, read-out: Half-Life both sexes), greater than 120 min; in series [2] (setting [10]), 113 min. The IC50 in series [3] was determined as 663 nM. In series [5], this compound had a solubility at 40 min of 4.37 µM (≈ 2.32 µg/mL).

`Cn1c(=O)c2c(ncn2CC(=O)Nc2ccnc(-c3cnc(N4CCCC4(C)C)nc3)n2)n(C)c1=O` [Compound 18, 2-(1,3-dimethyl-2,6-dioxo-2,3-dihydro-1H-purin-7(6H)-yl)-N-(2′-(2,2-dimethylpyrrolidin-1-yl)-2,5′-bipyrimidin-4-yl)acetamide]: in series [1], the “Human Liver Microsomes Hepatic Clearance” value is 15 mL/min/kg. Further, the half-life at 1 μM in series [1] worked out at 12 min; in series [2] (setting [10]) it was 21.8 min. Moreover, in series [2] (rat liver microsomes), the “Hepatic Clearance” value came to 24 mL/min/kg. Also, the IC50 in series [3] turned out to be 10.4 nM. The figures for the solubility kinetic at 24 h in series [4] (setting [7]), in series [4] (setting [8]) and in series [4] (setting [9]) were 51 µg/mL (≈ 104 µM), 17 µg/mL (≈ 34.7 µM) and 41 µg/mL (≈ 83.6 µM), respectively.
